What all share (test): Test A pre/postemergence
Common to all, as to type: in vivo

The test system of experiment [1] is barnyardgrass (Echinochloa crus-galli). On the procedure:
(§1) Seeds of barnyardgrass (Echinochloa crus-galli), crabgrass (Digitaria sanguinalis), giant foxtail (Setaria faberi), morningglory (Ipomoea spp.), redroot pigweed (Amaranthus retroflexus) and velvetleaf (Abutilon theophrasti) were planted into a blend of loam soil and sand and treated preemergence with a directed soil spray using test chemicals formulated in a non-phytotoxic solvent mixture which included a surfactant. At the same time these species were also treated with postemergence applications of test chemicals formulated in the same manner.
(§2) Plants ranged in height from 2 to 10 cm and were in the 1- to 2-leaf stage for the postemergence treatment. Treated plants and untreated controls were maintained in a greenhouse for approximately ten days, after which time all treated plants were compared to untreated controls and visually evaluated for injury. Plant response ratings, summarized in Table A, are based on a 0 to 100 scale where 0 is no effect and 100 is complete control. A dash (-) response means no test results.

Experiment [2] deals with velvetleaf (Abutilon theophrasti). On the procedure: as §1, §2
In experiment [3] the test system is redroot pigweed (Amaranthus retroflexus). On the procedure:
as §1, §2

The subject of experiment [4] is morningglory (Ipomoea spp.). How it is done: as §1, §2
In experiment [5] the test system is giant foxtail (Setaria faberi). How it is done:
as §1, §2

The subject of experiment [6] is crabgrass (Digitaria sanguinalis). How it is done: as §1, §2
Where [7] appears, read: Postemergence, 125 g ai/ha, 0 to 100 scale (0 no effect, 100 complete control).
[8] abbreviates: Postemergence, 500 g ai/ha, 0 to 100 scale (0 no effect, 100 complete control).
Where [9] appears, read: Preemergence, 125 g ai/ha, 0 to 100 scale where 0 is no effect and 100 is complete control, approximately ten days.
Where [10] appears, read: Preemergence, 500 g ai/ha, 0 to 100 scale where 0 is no effect and 100 is complete control, approximately ten days.

For the compound `Nc1nc(C2CC2)nc(OCC(=O)[O-])c1Cl.[Na+]` [Compound 116], the “Plant response rating, Barnyardgrass” value in experiment [1] (setting [7]) is 0; in experiment [1] (setting [8]), 0; in experiment [1] (setting [9]), 10; in experiment [1] (setting [10]), 20. For the same compound, the “Plant response rating, Velvetleaf” value was determined as 15 in experiment [2] (setting [7]), 40 in experiment [2] (setting [8]), 0 in experiment [2] (setting [9]) and 15 in experiment [2] (setting [10]). For the same compound, the “Plant response rating, Pigweed” value is recorded as 20 in experiment [3] (setting [7]), 35 in experiment [3] (setting [8]), 30 in experiment [3] (setting [9]) and 50 in experiment [3] (setting [10]). The “Plant response rating, Morningglory” value was found to be 40 in experiment [4] (setting [7]), 60 in experiment [4] (setting [8]), 30 in experiment [4] (setting [9]) and 50 in experiment [4] (setting [10]). For the same compound, the “Plant response rating, Foxtail, Giant” value in experiment [5] (setting [7]), in experiment [5] (setting [8]), in experiment [5] (setting [9]) and in experiment [5] (setting [10]) was 0 in each case. Further, the “Plant response rating, Crabgrass” value was found to be 0 in experiment [6] (setting [7]), 0 in experiment [6] (setting [8]), 0 in experiment [6] (setting [9]) and 10 in experiment [6] (setting [10]).
Consider `CC(C)=NOC(=O)c1nc(C2CC2)nc(N)c1Cl` [Compound 146], for which the “Plant response rating, Barnyardgrass” value in experiment [1] (setting [7]) is given as 70; in experiment [1] (setting [8]), 90; in experiment [1] (setting [9]) it was 65; in experiment [1] (setting [10]) it was 90. The “Plant response rating, Velvetleaf” value in experiment [2] (setting [7]) was found to be 85; in experiment [2] (setting [8]), 100; in experiment [2] (setting [9]), 85; in experiment [2] (setting [10]), 100. Moreover, the “Plant response rating, Pigweed” value amounted to 90 in experiment [3] (setting [7]), 95 in experiment [3] (setting [8]), 75 in experiment [3] (setting [9]) and 95 in experiment [3] (setting [10]). The “Plant response rating, Morningglory” value in experiment [4] (setting [7]) is listed as 85; in experiment [4] (setting [8]), 100; in experiment [4] (setting [9]), 95; in experiment [4] (setting [10]), 100. Besides, the “Plant response rating, Foxtail, Giant” value in experiment [5] (setting [7]) amounted to 80; in experiment [5] (setting [8]), 85; in experiment [5] (setting [9]) it was 60; in experiment [5] (setting [10]), 90. The “Plant response rating, Crabgrass” value is listed as 20 in experiment [6] (setting [7]), 80 in experiment [6] (setting [8]), 35 in experiment [6] (setting [9]) and 75 in experiment [6] (setting [10]).
As to `COC(=O)COc1nc(-c2ccc(Cl)cc2)nc(N)c1Cl` [Compound 119], the “Plant response rating, Barnyardgrass” value in experiment [1] (setting [7]) worked out at 0; in experiment [1] (setting [8]), 5; in experiment [1] (setting [9]) it was 0; in experiment [1] (setting [10]), 10. Besides, the “Plant response rating, Velvetleaf” value in experiment [2] (setting [7]) is listed as 0; in experiment [2] (setting [8]), 10; in experiment [2] (setting [9]) it was 0; in experiment [2] (setting [10]), 0. Moreover, the “Plant response rating, Pigweed” value in experiment [3] (setting [7]) turned out to be 25; in experiment [3] (setting [8]) it was 45; in experiment [3] (setting [9]) it was 0; in experiment [3] (setting [10]), 0. For the same compound, the “Plant response rating, Morningglory” value in experiment [4] (setting [7]) was 40; in experiment [4] (setting [8]) it was 35; in experiment [4] (setting [9]) it was 0; in experiment [4] (setting [10]), 0. In addition, the “Plant response rating, Foxtail, Giant” value in experiment [5] (setting [7]), in experiment [5] (setting [8]), in experiment [5] (setting [9]) and in experiment [5] (setting [10]) was 0 each time. Further, the “Plant response rating, Crabgrass” value in experiment [6] (setting [7]), in experiment [6] (setting [8]), in experiment [6] (setting [9]) and in experiment [6] (setting [10]) was 0 throughout.
Take `Nc1nc(C2CC2)nc(C(=O)OCCCOC(=O)c2nc(C3CC3)nc(N)c2Cl)c1Cl` [Compound 142]: the “Plant response rating, Barnyardgrass” value is 45 in experiment [1] (setting [7]), 75 in experiment [1] (setting [8]), 50 in experiment [1] (setting [9]) and 75 in experiment [1] (setting [10]). Further, the “Plant response rating, Velvetleaf” value in experiment [2] (setting [7]) is recorded as 80; in experiment [2] (setting [8]), 90; in experiment [2] (setting [9]) it was 85; in experiment [2] (setting [10]), 85. The “Plant response rating, Pigweed” value in experiment [3] (setting [7]) was 85; in experiment [3] (setting [8]), 90; in experiment [3] (setting [9]), 70; in experiment [3] (setting [10]) it was 90. Besides, the “Plant response rating, Morningglory” value in experiment [4] (setting [7]) was determined as 90; in experiment [4] (setting [8]), 90; in experiment [4] (setting [9]), 85; in experiment [4] (setting [10]) it was 95. For the same compound, the “Plant response rating, Foxtail, Giant” value in experiment [5] (setting [7]) worked out at 30; in experiment [5] (setting [8]), 45; in experiment [5] (setting [9]) it was 25; in experiment [5] (setting [10]), 65. Further, the “Plant response rating, Crabgrass” value was determined as 15 in experiment [6] (setting [7]), 25 in experiment [6] (setting [8]), 45 in experiment [6] (setting [9]) and 85 in experiment [6] (setting [10]).
Regarding `CCOC(=O)Cc1nc(-c2ccc(Cl)cc2)nc(N)c1Cl` [Compound 120], the “Plant response rating, Barnyardgrass” value is reported as 10 in experiment [1] (setting [7]), 40 in experiment [1] (setting [8]), 5 in experiment [1] (setting [9]) and 15 in experiment [1] (setting [10]). The “Plant response rating, Velvetleaf” value in experiment [2] (setting [7]) was found to be 50; in experiment [2] (setting [8]), 65; in experiment [2] (setting [9]), 0; in experiment [2] (setting [10]), 0. Besides, the “Plant response rating, Pigweed” value is recorded as 20 in experiment [3] (setting [7]), 35 in experiment [3] (setting [8]), 0 in experiment [3] (setting [9]) and 0 in experiment [3] (setting [10]). Further, the “Plant response rating, Morningglory” value is on record as 25 in experiment [4] (setting [7]), 55 in experiment [4] (setting [8]), 0 in experiment [4] (setting [9]) and 0 in experiment [4] (setting [10]). For the same compound, the “Plant response rating, Foxtail, Giant” value in experiment [5] (setting [7]), in experiment [5] (setting [8]), in experiment [5] (setting [9]) and in experiment [5] (setting [10]) was 0 in each case. The “Plant response rating, Crabgrass” value in experiment [6] (setting [7]) is listed as 0; in experiment [6] (setting [8]) it was 5; in experiment [6] (setting [9]), 0; in experiment [6] (setting [10]), 0.
